Assay results from US12115157B2, “3-phenoxyazetidin-1-yl-heteroaryl pyrrolidine derivatives and the use thereof as medicament” (Boehringer Ingelheim International GmbH, priority 2021, dated 2024).

Tests used:
human GPR52 = human GPR52 (Homo sapiens (Human), UniProt Q9Y2T5); experiment: HTRF assay for direct cAMP measurement; assay type: cell-based; conditions: CHO-K1 cells stably expressing recombinant human GPR52, mean EC50
Method: HTRF cAMP assays were performed using commercially available assay kits according to the manufacturer's instructions (cAMP Dynamic 2 Assay Kit; #62AM4PEJ, Cisbio Bioassays, Bedford, MA). An aliquot of CHO-K1 cells stably expressing recombinant human GPR52 was thawed and resuspended in cell buffer (1×PBS (w/o Ca^2+/Mg^2+)) at a density of 4×10^5 cells per mL. Test compounds were solubilized in DMSO to 10 mM stock solutions and serially diluted in DMSO using 6-fold dilutions to generate 8-point dose response curves. These serially diluted samples were then diluted 1:50 in compound dilution buffer (1×PBS (w/o Ca^2+/Mg^2+) containing 0.5 mM IBMX, 0.1% BSA) to achieve a 4× stock. The diluted compounds were transferred (5 μL per well) in duplicate to the 384-well assay plate (Optiplate #6007290, PerkinElmer, Waltham, MA). Both a positive (reference compound) and negative (non-stimulated vehicle) control was included in each assay run in column 23. The cell suspension was subsequently dispensed into the 384-well assay plates at 15 μL per well (6000 cells) such that the compound was diluted to 1×. […] After a one-hour incubation at room temperature, 10 μL of cAMP D2 reagent followed by 10 μL of cryptate reagent (provided in the Cisbio kit) was added to each well. Plates were then incubated at room temperature for one hour prior to reading. Time-resolved fluorescence measurements were collected on an EnVision® HTRF plate reader (PerkinElmer, Waltham, MA). Counts from the plate reader were fit to the cAMP standard curve included on each plate to determine the amount of cAMP in each test well. The % control was calculated based on the […]. Dose-response curves were generated from the cAMP data and analyzed using a nonlinear least squares curve-fitting program to obtain EC50 values.

[1] = In vitro metabolite profiling in human liver microsomes in absence of NADPH; assay type: in vitro ADME; design: key: yes: Metabolite is formed in presence of human liver microsomes in the absence of cofactors as indication of a non-CYP-dependent pathway; Metabolite is not detected in microsomal incubations
Method: (§1) In vitro metabolite profiling to evaluate the involvement of non-CYP-enzyme-mediated metabolic pathways such as hydrolysis in addition to CYP-mediated pathways is based on the semiquantitative analysis of the formation of prototypic metabolites in incubations with liver microsomes (with and without beta-nicotinamide adenine dinucleotide phosphate, NADPH), primary human hepatocytes (with and without the pan-CYP inhibitor proadifen) and recombinant CYP enzymes.
(§2) The involvement of hydrolases, such as carboxylesterases or arylacetamide deacetylase, is assumed if the metabolite resulting from amide hydrolysis of a compound of the present invention of general formula (I) wherein R^6 is an acetyl-group, i.e. the deacetylated compound thereof, is not formed in presence of the relevant drug-metabolizing human recombinant CYP enzymes but is formed in human liver microsomes in the absence of NADPH. Hydrolases are highly abundant in liver microsomes; however, in contrast to CYP-related metabolic processes, the catalytic activity of hydrolases is independent of NADPH. As such, the deacetylated metabolite would be formed in incubations of human liver microsomes lacking NADPH.
(§3) A phenotyping assay was performed to identify the CYP enzymes responsible for metabolic conversion of the compound. The metabolic degradation of the test compound and the assessment of formation of metabolites was performed using Supersomes (human CYP expressed in baculovirus infected insect cells) and human liver microsomes, respectively. Compounds were tested specifically for their conversion by CYP isoenzymes 1A1, 1A2, 2B6, 2C8, 2C9, 2C19, 2D6, 3A4 and 3A5. […]
(§4) Following a short preincubation period for 15 min at 37° C., the reaction was initiated by addition of NADPH (reduced form, 1 mM). […] Samples were analyzed for formation of putative metabolites by means of by liquid chromatography-high resolution mass spectrometry.

[2] = system: human recombinant CYP enzymes (1A1, 1A2, 2B6, 2C8, 2C9, 2C19, 2D6, 3A4, 3A5); experiment: CYP phenotyping with human recombinant CYP enzymes (Supersomes); assay type: in vitro ADME; design: key: yes: Metabolite is formed in presence of human recombinant CYP-enzymes; Metabolite is not detected in presence of human recombinant CYP-enzymes as indication of a non-CYP-dependent pathway
Method: as §1, §2, §3, §4

human hepatocytes = experiment: Metabolic stability in human hepatocytes; assay type: in vitro ADME; conditions: human hepatocyte suspension, 1 μM; predicted hepatic clearance as percentage of hepatic blood flow
Method: The metabolic degradation of a test compound was assayed in a human hepatocyte suspension. After recovery from cryopreservation, human hepatocytes were diluted in Dulbecco's modified eagle medium (supplemented with 3.5 μg glucagon/500 mL, 2.5 mg insulin/500 mL, 3.75 mg hydrocortisone/500 mL, 5% human serum) to obtain a final cell density of 1.0×10^6 cells/mL or 4.0×10^6 cells/mL, depending on the metabolic turnover rate of the test compound.
Following a 30 minutes preincubation in a cell culture incubator (37° C., 10% CO2), test compound solution was spiked into the hepatocyte suspension, resulting in a final test compound concentration of 1 μM and a final DMSO concentration of 0.05% (v/v).
The cell suspension was incubated at 37° C. (cell culture incubator, horizontal shaker) and samples were removed from the incubation after 0, 0.5, 1, 2, 4 and 6 hours. Samples were quenched with acetonitrile (containing internal standard) and pelleted by centrifugation. The supernatant was transferred to a 96-deepwell plate, and prepared for analysis of decline of parent compound by HPLC-MS/MS.
The percentage of remaining test compound was calculated using the peak area ratio (test compound/internal standard) of each incubation time point relative to the time point 0 peak area ratio. The log-transformed data were plotted versus incubation time, and the absolute value of the slope obtained by linear regression analysis was used to estimate in vitro half-life (T1/2).
In vitro intrinsic clearance (CLint) was calculated from in vitro T1/2 and scaled to whole liver using a hepatocellularity of 120×10^6 cells/g liver, a human liver per body weight of 25.7 g liver/kg as well as in vitro incubation parameters, applying the following equation: CL_[…]_IN VIVO[mL/min/kg]=(CL_[…][μL/min/10^6 cells]×hepatocellularity[10^6 cells/g liver]×liver factor[g/kg body weight])/1000
Hepatic in vivo blood clearance (CL) was predicted according to the well-stirred liver model considering an average liver blood flow (QH) of 20.7 mL/min/kg: CL[mL/min/kg]=CL_[…]_IN VIVO[mL/min/kg]×hepatic blood flow[mL/min/kg]/(CL_[…]_IN VIVO[mL/min/kg]+hepatic blood flow[mL/min/kg])
Results were expressed as percentage of hepatic blood flow: QH[%]=CL[mL/min/kg]/hepatic blood flow[mL/min/kg])

[3] = secondary metabolite m405 (of m411)
[4] = secondary metabolite m425 (of m411)
[5] = secondary metabolite m443 (of m429)

Chain of human GPR52 (Q9Y2T5 whole entry): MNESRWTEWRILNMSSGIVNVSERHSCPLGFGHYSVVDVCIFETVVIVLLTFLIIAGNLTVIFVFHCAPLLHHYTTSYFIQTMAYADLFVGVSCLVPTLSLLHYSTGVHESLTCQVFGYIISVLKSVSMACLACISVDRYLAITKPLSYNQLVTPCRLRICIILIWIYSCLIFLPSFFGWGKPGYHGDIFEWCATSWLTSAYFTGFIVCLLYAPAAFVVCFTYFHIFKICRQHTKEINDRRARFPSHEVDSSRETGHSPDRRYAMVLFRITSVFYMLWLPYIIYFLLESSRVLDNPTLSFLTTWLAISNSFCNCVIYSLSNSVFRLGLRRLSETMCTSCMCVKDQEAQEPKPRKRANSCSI

EC50 (human GPR52)	Formation in human liver microsomal incubations in absence of NADPH [1, 3]	Formation in human liver microsomal incubations in absence of NADPH [1, 4]	Specific formation in human recombinant CYP enzymes [2, 3]	Specific formation in human recombinant CYP enzymes [2, 4]	Human HepStab (human hepatocytes)	Formation in human liver microsomal incubations in absence of NADPH [1, 5]	Specific formation in human recombinant CYP enzymes [2, 5]	Compound
0.014 µM	no^5	no^5	no^5	no^5	15.3 % QH	–	–	CC(=O)N1C[C@H](NC(=O)c2nccnc2N2CC(Oc3cc(F)cc(F)c3)C2)C(F)(F)C1 [Example 10a]
–	–	–	–	–	11.4 % QH	no^6	no	CC(=O)N1C[C@H](NC(=O)c2nccnc2N2CC(Oc3cc(F)c(F)c(F)c3)C2)C(F)(F)C1 [Example 11b]
0.02 µM	–	–	–	–	6.4 % QH	–	–	CC(=O)N1CC[C@@H](NC(=O)c2nsnc2N2CC(Oc3cc(F)cc(F)c3)C2)C1 [Example 15a]
